Reference: patent EP0115400A1, “Triazole antifungal agents” (Pfizer Limited, priority 1983, dated 1984)

What follows are molecules tested on Candida albicans (assay: in vivo oral protection of mice inoculated with a lethal infection of Candida albicans). Conditions: oral administration to mice with lethal Candida albicans infection; survival of treated group after death of untreated group, 48 hours observation.
Protocol: The in vivo evaluation of the compounds can be carried out at a series of dose levels by intraperitoneal or intravenous injection or by oral administration, to mice which are inoculated with a strain of Candida albicans. Activity is based on the survival of a treated group of mice after the death of an untreated group of mice following 48 hours observation. The dose level at which the compound provides 50X protection against the lethal effect of the infection is noted.
The compounds of the Examples were tested in vivo by oral administration to mice inoculated with a lethal infection of Candida albicans according to the procedures described herein. The dose levels providing 50% protection (PD50) were as follows: […]
Cn1ncnc1CC(O)(Cn1cncn1)c1ccc(Cl)cc1Cl (stereo not drawn) [Example 3 (2), 2-(2,4-Dichlorophenyl)-1-(2-methyl-1,2,4-triazol-3-yl)-3-(1H-1-2,4-triazol-1-yl)propan-2-ol] was tested, and the “PD50 (dose level providing 50% protection)” value was 20 mg/kg/p.o. With Cn1cnnc1CC(O)(Cn1cncn1)c1ccc(Cl)cc1Cl (stereo not drawn) [Example 3 (3), 2-(2,4-Dichlorophenyl)-1-(4-methyl-1,2,4-triazol-3-yl)-3-(1H-1,2,4-triazol-l-yl)propan-2-ol] the “PD50 (dose level providing 50% protection)” value was 3.5 mg/kg/p.o.

Same assay, conditions: oral administration to mice with lethal Candida albicans infection; survival of treated group after death of untreated group, 48 hours observation; read-out: PD50 (dose level providing 50% protection)
Cn1ccnc1CC(O)(Cn1cncn1)c1ccc(Cl)cc1Cl (stereo not drawn) [Example 5, 2-(2,4-Dichlorophenyl)-1-(1-methylimidazol-2-yl)-3-(1H-1,2,4-triazol-1-yl)propan-2-ol dimesylate] showed an ED50 of 1 mg/kg. Work on OC(Cc1ncn[nH]1)(Cn1cncn1)c1ccc(Cl)cc1Cl (stereo not drawn) [Example 2, 2-(2,4-Dichlorophenyl)-1-(1,2,4-triazol-3-yl)-3-(1H-1,2,4-triazol-1-yl)propan-2-ol, dioxalate] yielded an ED50 of 2.2 mg/kg. For OC(Cc1ncc[nH]1)(Cn1cncn1)c1ccc(Cl)cc1Cl (stereo not drawn) [Example 4, 2-(2,4-Dichlorophenyl)-1-(imidazol-2-yl)-3-(1H-1,2,4-triazol-1-yl)propan-2-ol], the ED50 was 1.2 mg/kg. In the case of Cn1nnnc1CC(O)(Cn1cncn1)c1ccc(Cl)cc1Cl (stereo not drawn) [Example 1, 2-(2,4-Dichlorophenyl)-1-(1-methyltetrazol-5-yl)-3-(lH-1,2,4-triazol-l-yl)propan-2-ol], the ED50 was 0.1 mg/kg.
